We go through one molecule from patent publication US9011965B2, “Gradient coating for biomedical applications” (Smith & Nephew, Inc., priority 2008, dated 2015).

The nature of this series: release of bupivacaine from coated samples in PBS, spectrophotometry at 265 nm. The series is classed as physicochemical. The note with it: released from coated samples, 3 mL PBS, 37° C. As for the experimental part: The release of Ag, Ca, and Bupivacaine from the prepared coating was confirmed by ICP analysis and UV spectrometry, respectively. The coated samples were immersed in 3 mL PBS for 24 and 48 hours at 37° C. At each time point, the release of bupivacaine was measured spectrophotometrically (Nanodrop, Thermo) at 265 nm. The Bupivacaine standard was prepared by dissolving appropriate amounts of the drug in PBS. PBS was used as blank.

`CCCCN1CCCCC1C(=O)Nc1c(C)cccc1C` (centres unmarked) [Bupivacaine]: the “Bupivacaine Concentration in PBS” value reads like this: (24 hours) 126 ppm; (48 hours) 141 ppm.
